Experimental findings from the NIST ThermoML archive (doi:10.1016/j.jct.2005.03.013) are described below.

The conditions of series [1]: for viscosity: 101.33 kPa, Liquid.
The nature of series [2]: molar heat capacity at constant pressure. Particulars: 101.33 kPa, Liquid, Large sample (1 g) DSC.

Broadly, the viscosity is the internal friction of a fluid under shear.

± gives the expanded uncertainty stated by the source.

Take `CCCCCC[n+]1ccn(C)c1.O=S(=O)([N-]S(=O)(=O)C(F)(F)F)C(F)(F)F`: the viscosity is 148 ± 10 mPa·s in series [1] (283 K); 86 ± 5 mPa·s in series [1] (293 K); 68 ± 4 mPa·s in series [1] (298 K); 55 ± 3 mPa·s in series [1] (303 K); 37 ± 2 mPa·s in series [1] (313 K); 26 ± 1 mPa·s in series [1] (323 K). For the same compound, the viscosity in series [1] (333 K) was 19 ± 1 mPa·s; in series [1] (343 K) it was 15 ± 1 mPa·s. Moreover, in series [1], the Glass transition temperature was -84 ± 4 °C. Further, the Triple point temperature in series [1] (Metastable crystal) came to 266 ± 3 K. Besides, the results for the “molar heat capacity at constant pressure” value in series [2] (298 K) and in series [2] (323 K) were 583 ± 59 J/K/mol and 604 ± 61 J/K/mol, respectively.

On to `CCCCCC[n+]1ccccc1.O=S(=O)([N-]S(=O)(=O)C(F)(F)F)C(F)(F)F` [1-hexylpyridinium bis(trifluromethylsulfonyl)imide], for which the viscosity is reported as 189 ± 14 mPa·s in series [1] (283 K); 106 ± 7 mPa·s in series [1] (293 K); 80 ± 5 mPa·s in series [1] (298 K); 64 ± 3 mPa·s in series [1] (303 K); 42 ± 2 mPa·s in series [1] (313 K); 29 ± 2 mPa·s in series [1] (323 K). Also, the viscosity in series [1] (333 K) was 21 ± 1 mPa·s; in series [1] (343 K), 16 ± 1 mPa·s. For the same compound, the Triple point temperature in series [1] (Crystal) was found to be 273 ± 3 K. The Glass transition temperature in series [1] is -77 ± 4 °C. Besides, the figures for the “molar heat capacity at constant pressure” value in series [2] (298 K) and in series [2] (323 K) were 612 ± 62 J/K/mol and 632 ± 64 J/K/mol, respectively.

On to `CCCCCCn1cc[n+](C)c1.F[B-](F)(F)F` [1-hexyl-3-methylimidazolium tetrafluoroborate], for which, in series [1], the Glass transition temperature was -79 ± 4 °C. Besides, the “molar heat capacity at constant pressure” value in series [2] (298 K) was 416 ± 42 J/K/mol; in series [2] (323 K), 433 ± 44 J/K/mol.

Take `CCCCCCCC[n+]1ccn(C)c1.F[B-](F)(F)F` [1-methyl-3-octylimidazolium tetrafluoroborate]: in series [1], the Glass transition temperature was -81 ± 4 °C. The “molar heat capacity at constant pressure” value in series [2] (298 K) turned out to be 506 ± 51 J/K/mol; in series [2] (323 K), 526 ± 53 J/K/mol.

With `CCOC(=O)c1ccc[n+](CC)c1.CCOS(=O)(=O)[O-]` [3-(ethoxycarbonyl)-1-ethylpyridinium ethylsulfate], the viscosity was 19610 ± 4800 mPa·s in series [1] (283 K); 5675 ± 1200 mPa·s in series [1] (293 K); 3173 ± 570 mPa·s in series [1] (298 K); 1986 ± 310 mPa·s in series [1] (303 K); 846 ± 110 mPa·s in series [1] (313 K); 405 ± 40 mPa·s in series [1] (323 K). Moreover, the figures for the viscosity in series [1] (333 K) and in series [1] (343 K) were 221 ± 17 mPa·s and 130 ± 9 mPa·s, respectively. Further, in series [1], the Glass transition temperature was -44 ± 3 °C. The “molar heat capacity at constant pressure” value was 513 ± 52 J/K/mol in series [2] (298 K) and 530 ± 54 J/K/mol in series [2] (323 K).

Regarding `CCOS(=O)(=O)[O-].CC[n+]1cccc(C)c1` [1-ethyl-3-methylpyridinium ethylsulfate], the viscosity in series [1] (283 K) came to 414 ± 39 mPa·s; in series [1] (293 K), 204 ± 17 mPa·s; in series [1] (298 K), 150 ± 10 mPa·s; in series [1] (303 K), 114 ± 7 mPa·s; in series [1] (313 K), 70 ± 4 mPa·s; in series [1] (323 K), 45 ± 2 mPa·s. Moreover, the viscosity in series [1] (333 K) is 32 ± 2 mPa·s; in series [1] (343 K), 23 ± 1 mPa·s. Moreover, the Glass transition temperature in series [1] is -71 ± 3 °C. Also, the results for the “molar heat capacity at constant pressure” value in series [2] (298 K) and in series [2] (323 K) were 389 ± 39 J/K/mol and 402 ± 41 J/K/mol, respectively.

On to `CCCCCC[n+]1cccc(C)c1.[Br-]` [1-hexyl-3-methylpyridinium bromide], for which the Glass transition temperature in series [1] is -37 ± 4 °C. For the same compound, the “molar heat capacity at constant pressure” value was 343 ± 35 J/K/mol in series [2] (298 K) and 358 ± 36 J/K/mol in series [2] (323 K).

Consider `CCCC[n+]1cccc(C)c1.O=S(=O)([N-]S(=O)(=O)C(F)(F)F)C(F)(F)F`, for which the viscosity is 138 ± 8 mPa·s in series [1] (283 K); 80 ± 4 mPa·s in series [1] (293 K); 63 ± 3 mPa·s in series [1] (298 K); 51 ± 2 mPa·s in series [1] (303 K); 34 ± 2 mPa·s in series [1] (313 K); 24 ± 1 mPa·s in series [1] (323 K). Also, the viscosity in series [1] (333 K) was 18 ± 1 mPa·s; in series [1] (343 K), 14 ± 1 mPa·s. For the same compound, in series [1], the Glass transition temperature is -84 ± 4 °C. In addition, the entries for the “molar heat capacity at constant pressure” value in series [2] (298 K) and in series [2] (323 K) were 622 ± 63 J/K/mol and 641 ± 65 J/K/mol, respectively.

`CCCCCC[n+]1cccc(C)c1.O=S(=O)([N-]S(=O)(=O)C(F)(F)F)C(F)(F)F`: the viscosity amounted to 197 ± 14 mPa·s in series [1] (283 K); 110 ± 7 mPa·s in series [1] (293 K); 85 ± 5 mPa·s in series [1] (298 K); 67 ± 4 mPa·s in series [1] (303 K); 44 ± 2 mPa·s in series [1] (313 K); 30 ± 2 mPa·s in series [1] (323 K). Moreover, the viscosity in series [1] (333 K) was found to be 22 ± 1 mPa·s; in series [1] (343 K), 16 ± 1 mPa·s. The Glass transition temperature in series [1] is -82 ± 4 °C. The “molar heat capacity at constant pressure” value is 624 ± 63 J/K/mol in series [2] (298 K) and 644 ± 65 J/K/mol in series [2] (323 K).

Turning to `CCCCCCn1cc[n+](C)c1.[Br-]` [3-hexyl-1-methyl-1H-imidazolium bromide], the Glass transition temperature in series [1] is -49 ± 4 °C. The entries for the “molar heat capacity at constant pressure” value in series [2] (298 K) and in series [2] (323 K) were 344 ± 35 J/K/mol and 357 ± 36 J/K/mol, respectively.
